Test results published in the NIST ThermoML archive (doi:10.1021/je101178u).
Where “and” joins values, the source holds several entries; their conditions need not be identical. Equal entries are not always repeated. Numbers after ± are expanded uncertainties.

Conditions: Fluid (supercritical or subcritical phases); for mass density: Buoyancy - hydrostatic balance with magnetic suspension - one sinker; for viscosity: vibrating wire

CCC [propane]
Conditions	mass density, 373.15 K	mass density, 423.15 K	viscosity, 373.15 K	viscosity, 423.15 K
79.37 kPa	–	0.99883 ± 0.003 kg/m3	–	0.01136 ± 6.8e-05 mPa·s
158.25 kPa	–	1.9998 ± 0.0048 kg/m3	–	0.01137 ± 6.8e-05 mPa·s
313.56 kPa	–	3.9954 ± 0.0087 kg/m3	–	0.0114 ± 6.9e-05 mPa·s
466.92 kPa	–	5.9988 ± 0.013 kg/m3	–	0.01142 ± 6.9e-05 mPa·s
467.03 kPa	–	6.0003 ± 0.013 kg/m3	–	0.01143 ± 6.9e-05 mPa·s
611.2 kPa	–	7.9148 ± 0.017 kg/m3	–	0.01145 ± 6.9e-05 mPa·s
611.47 kPa	–	7.9184 ± 0.017 kg/m3	–	0.01145 ± 6.9e-05 mPa·s
763.44 kPa	–	9.9704 ± 0.021 kg/m3	–	0.01148 ± 6.9e-05 mPa·s
763.61 kPa	–	9.9726 ± 0.021 kg/m3	–	0.01148 ± 6.9e-05 mPa·s
920.8 kPa	–	12.133 ± 0.026 kg/m3	–	0.01151 ± 6.9e-05 mPa·s and 0.01152 ± 6.9e-05 mPa·s
1060.2 kPa	–	14.082 ± 0.03 kg/m3	–	0.01155 ± 7e-05 mPa·s
1061.3 kPa	–	14.098 ± 0.03 kg/m3	–	0.01155 ± 7e-05 mPa·s
1192.7 kPa	–	15.966 ± 0.034 kg/m3	–	0.01158 ± 7e-05 mPa·s
1193.5 kPa	–	15.977 ± 0.034 kg/m3	–	0.01158 ± 7e-05 mPa·s
1334.7 kPa	–	18.018 ± 0.038 kg/m3	–	0.01162 ± 7e-05 mPa·s
1335.7 kPa	–	18.032 ± 0.038 kg/m3	–	0.01162 ± 7e-05 mPa·s
1454.8 kPa	–	19.782 ± 0.042 kg/m3 and 19.781 ± 0.042 kg/m3	–	0.01166 ± 7e-05 mPa·s
2110 kPa	–	29.905 ± 0.064 kg/m3	–	0.01189 ± 7.2e-05 mPa·s
2110.7 kPa	–	29.916 ± 0.064 kg/m3	–	0.01189 ± 7.2e-05 mPa·s
2704.3 kPa	–	39.922 ± 0.087 kg/m3	–	0.01217 ± 7.3e-05 mPa·s
2704.8 kPa	–	39.931 ± 0.087 kg/m3	–	0.01217 ± 7.3e-05 mPa·s
3242.6 kPa	–	49.821 ± 0.11 kg/m3	–	0.01248 ± 7.5e-05 mPa·s
3243.3 kPa	–	49.834 ± 0.11 kg/m3	–	0.01248 ± 7.5e-05 mPa·s
3747.9 kPa	–	59.965 ± 0.14 kg/m3	–	0.01283 ± 7.7e-05 mPa·s
3749.2 kPa	–	59.991 ± 0.14 kg/m3	–	0.01284 ± 7.7e-05 mPa·s
4207.4 kPa	–	70.041 ± 0.17 kg/m3	–	0.01323 ± 8e-05 mPa·s
4207.9 kPa	–	70.052 ± 0.17 kg/m3	–	0.01323 ± 8e-05 mPa·s
4515.1 kPa	229.821 ± 0.84 kg/m3	–	0.02377 ± 0.00017 mPa·s	–
4530.1 kPa	241.836 ± 0.87 kg/m3	–	0.02518 ± 0.00018 mPa·s	–
4530.2 kPa	241.88 ± 0.87 kg/m3	–	0.02519 ± 0.00018 mPa·s	–
4556 kPa	256.611 ± 0.91 kg/m3	–	0.02701 ± 0.00019 mPa·s	–
4556.1 kPa	256.634 ± 0.91 kg/m3	–	0.027 ± 0.00019 mPa·s	–
4576.2 kPa	264.588 ± 0.93 kg/m3	–	0.02805 ± 0.0002 mPa·s	–
4576.3 kPa	264.609 ± 0.93 kg/m3	–	0.02806 ± 0.0002 mPa·s	–
4606.1 kPa	273.294 ± 0.96 kg/m3 and 273.287 ± 0.96 kg/m3	–	0.02925 ± 0.00021 mPa·s and 0.02926 ± 0.00021 mPa·s	–
4616.7 kPa	–	79.819 ± 0.3 kg/m3	–	0.01365 ± 0.0001 mPa·s
4617.3 kPa	–	79.834 ± 0.3 kg/m3	–	0.01365 ± 0.0001 mPa·s
4657.2 kPa	283.68 ± 0.98 kg/m3	–	0.03078 ± 0.00022 mPa·s	–
4657.5 kPa	283.727 ± 0.98 kg/m3	–	0.03078 ± 0.00022 mPa·s	–
4809.3 kPa	301.877 ± 0.71 kg/m3	–	0.03369 ± 0.00022 mPa·s	–
4809.5 kPa	301.894 ± 0.71 kg/m3	–	0.03367 ± 0.00022 mPa·s	–
5007.5 kPa	–	89.97 ± 0.35 kg/m3	–	0.01412 ± 0.00013 mPa·s
5008.6 kPa	–	90.002 ± 0.35 kg/m3	–	0.01412 ± 0.00013 mPa·s
5105.6 kPa	320.889 ± 0.71 kg/m3	–	0.03705 ± 0.00024 mPa·s	–
5105.8 kPa	320.902 ± 0.71 kg/m3	–	0.03706 ± 0.00024 mPa·s	–
5358.6 kPa	–	99.87 ± 0.37 kg/m3	–	0.01462 ± 0.00013 mPa·s
5360.2 kPa	–	99.917 ± 0.37 kg/m3	–	0.01462 ± 0.00013 mPa·s
5614.7 kPa	339.536 ± 0.74 kg/m3	–	0.04075 ± 0.00027 mPa·s	–
5616.4 kPa	339.584 ± 0.74 kg/m3	–	0.04077 ± 0.00027 mPa·s	–
5652.1 kPa	340.592 ± 0.74 kg/m3	–	0.04096 ± 0.00027 mPa·s	–
5664.6 kPa	340.939 ± 0.74 kg/m3	–	0.04104 ± 0.00027 mPa·s	–
5665.9 kPa	340.974 ± 0.74 kg/m3	–	0.04105 ± 0.00027 mPa·s	–
5989.5 kPa	–	119.759 ± 0.41 kg/m3	–	0.01573 ± 0.00014 mPa·s
5989.8 kPa	–	119.769 ± 0.41 kg/m3	–	0.01573 ± 0.00014 mPa·s
6545.1 kPa	–	139.717 ± 0.45 kg/m3	–	0.017 ± 0.00015 mPa·s
6545.3 kPa	–	139.725 ± 0.45 kg/m3	–	0.017 ± 0.00015 mPa·s
6602.8 kPa	360.84 ± 0.77 kg/m3	–	0.04555 ± 0.0003 mPa·s	–
6603.5 kPa	360.852 ± 0.77 kg/m3	–	0.04553 ± 0.0003 mPa·s	–
7033 kPa	–	159.017 ± 0.49 kg/m3	–	0.01838 ± 0.00016 mPa·s
7033.7 kPa	–	159.048 ± 0.49 kg/m3	–	0.01838 ± 0.00016 mPa·s
7520.1 kPa	–	179.397 ± 0.52 kg/m3	–	0.02002 ± 0.00017 mPa·s
7520.8 kPa	–	179.425 ± 0.52 kg/m3	–	0.02002 ± 0.00017 mPa·s
7992.2 kPa	–	199.277 ± 0.56 kg/m3	–	0.02182 ± 0.00018 mPa·s
7992.6 kPa	–	199.294 ± 0.56 kg/m3	–	0.02182 ± 0.00018 mPa·s
8140.1 kPa	381.197 ± 0.79 kg/m3	–	0.05077 ± 0.00033 mPa·s	–
8140.4 kPa	381.2 ± 0.79 kg/m3	–	0.05076 ± 0.00033 mPa·s	–
8516 kPa	–	220.253 ± 0.59 kg/m3	–	0.02395 ± 0.00019 mPa·s
8516.4 kPa	–	220.267 ± 0.59 kg/m3	–	0.02394 ± 0.00019 mPa·s
9079.6 kPa	–	240.483 ± 0.61 kg/m3	–	0.02624 ± 0.0002 mPa·s
9079.9 kPa	–	240.492 ± 0.61 kg/m3	–	0.02623 ± 0.0002 mPa·s
9738.4 kPa	–	260.609 ± 0.61 kg/m3	–	0.02877 ± 0.0002 mPa·s
9738.5 kPa	–	260.612 ± 0.61 kg/m3	–	0.02878 ± 0.0002 mPa·s
10482 kPa	401.46 ± 0.82 kg/m3	–	0.05673 ± 0.00036 mPa·s	–
10483 kPa	401.469 ± 0.82 kg/m3	–	0.05674 ± 0.00036 mPa·s	–
10543 kPa	–	280.635 ± 0.64 kg/m3	–	0.03161 ± 0.00022 mPa·s
10544 kPa	–	280.644 ± 0.64 kg/m3	–	0.0316 ± 0.00022 mPa·s
11566 kPa	–	300.645 ± 0.66 kg/m3 and 300.654 ± 0.66 kg/m3	–	0.03477 ± 0.00023 mPa·s
12882 kPa	–	320.474 ± 0.69 kg/m3	–	0.03827 ± 0.00025 mPa·s
12884 kPa	–	320.488 ± 0.69 kg/m3	–	0.03828 ± 0.00025 mPa·s
13841 kPa	421.334 ± 0.85 kg/m3 and 421.333 ± 0.85 kg/m3	–	0.06347 ± 0.00039 mPa·s and 0.06343 ± 0.00039 mPa·s	–
14693 kPa	–	341.059 ± 0.72 kg/m3	–	0.04235 ± 0.00027 mPa·s and 0.04234 ± 0.00027 mPa·s
17064 kPa	–	361.23 ± 0.75 kg/m3	–	0.04694 ± 0.0003 mPa·s
17065 kPa	–	361.234 ± 0.75 kg/m3	–	0.04691 ± 0.0003 mPa·s
18565 kPa	441.166 ± 0.89 kg/m3	–	0.07127 ± 0.00044 mPa·s	–
18567 kPa	441.173 ± 0.89 kg/m3	–	0.07127 ± 0.00044 mPa·s	–
20192 kPa	–	381.227 ± 0.79 kg/m3	–	0.05209 ± 0.00033 mPa·s
20193 kPa	–	381.229 ± 0.79 kg/m3	–	0.05209 ± 0.00033 mPa·s
24333 kPa	–	401.231 ± 0.83 kg/m3	–	0.05798 ± 0.00036 mPa·s
24334 kPa	–	401.235 ± 0.83 kg/m3	–	0.05795 ± 0.00036 mPa·s
25008 kPa	460.907 ± 0.94 kg/m3	–	0.08006 ± 0.00049 mPa·s and 0.08024 ± 0.00049 mPa·s	–
25010 kPa	460.912 ± 0.94 kg/m3	–	0.08022 ± 0.00049 mPa·s and 0.08013 ± 0.00049 mPa·s	–
28973 kPa	470.682 ± 0.96 kg/m3	–	0.08526 ± 0.00052 mPa·s	–
28975 kPa	470.686 ± 0.96 kg/m3	–	0.08531 ± 0.00052 mPa·s and 0.08536 ± 0.00052 mPa·s and 0.0853 ± 0.00052 mPa·s	–
29700 kPa	–	421.002 ± 0.88 kg/m3	–	0.06464 ± 0.0004 mPa·s
29703 kPa	–	421.011 ± 0.88 kg/m3	–	0.06466 ± 0.0004 mPa·s
29829 kPa	472.623 ± 0.96 kg/m3	–	0.08626 ± 0.00053 mPa·s	–
29830 kPa	472.624 ± 0.96 kg/m3	–	0.08626 ± 0.00053 mPa·s	–
